Calls of active or inactive are those of the source.
Key:
[1] = target: Beta-galactosidase (Escherichia coli, UniProt Q8VNN2); experiment: PubChem AID 485352; type: functional
[2] = target: T1, Type-1 angiotensin II receptor (Homo sapiens, UniProt P30556); experiment: antagonism of angiotensin II type 1 receptor – cell-based, uHTS hits, selectivity assay for APJ receptor antagonist project, dose response (AID 463214); type: functional;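 note: antagonist potency against angiotensin II stimulated AT1 response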
T1 sequence (P30556 whole entry): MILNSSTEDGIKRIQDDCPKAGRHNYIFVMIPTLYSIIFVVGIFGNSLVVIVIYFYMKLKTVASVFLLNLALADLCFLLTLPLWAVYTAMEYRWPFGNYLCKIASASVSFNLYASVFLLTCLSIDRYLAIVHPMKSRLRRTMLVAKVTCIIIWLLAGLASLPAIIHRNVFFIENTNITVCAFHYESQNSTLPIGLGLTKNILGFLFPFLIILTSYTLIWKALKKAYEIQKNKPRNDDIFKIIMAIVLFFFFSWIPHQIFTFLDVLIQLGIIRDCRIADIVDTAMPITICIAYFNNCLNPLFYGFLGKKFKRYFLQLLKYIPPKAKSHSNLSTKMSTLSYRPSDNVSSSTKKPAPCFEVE

[3] = target: T2, Heat shock factor protein 1 (Mus musculus, UniProt P38532); experiment: enhancement of HSF1-driven luciferase signal – cell-based, NIH3T3, luminescence, dose retest, confirmation (AID 435004); type: functional;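 note: stress induced by proteasome inhibitor MG132 added 30 min after compound; luciferase reporter driven by HSF1 response element in NIH3T3 cells; actives raise luminescence as potentiators of the MG132 stress response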
T2 sequence (P38532 whole entry): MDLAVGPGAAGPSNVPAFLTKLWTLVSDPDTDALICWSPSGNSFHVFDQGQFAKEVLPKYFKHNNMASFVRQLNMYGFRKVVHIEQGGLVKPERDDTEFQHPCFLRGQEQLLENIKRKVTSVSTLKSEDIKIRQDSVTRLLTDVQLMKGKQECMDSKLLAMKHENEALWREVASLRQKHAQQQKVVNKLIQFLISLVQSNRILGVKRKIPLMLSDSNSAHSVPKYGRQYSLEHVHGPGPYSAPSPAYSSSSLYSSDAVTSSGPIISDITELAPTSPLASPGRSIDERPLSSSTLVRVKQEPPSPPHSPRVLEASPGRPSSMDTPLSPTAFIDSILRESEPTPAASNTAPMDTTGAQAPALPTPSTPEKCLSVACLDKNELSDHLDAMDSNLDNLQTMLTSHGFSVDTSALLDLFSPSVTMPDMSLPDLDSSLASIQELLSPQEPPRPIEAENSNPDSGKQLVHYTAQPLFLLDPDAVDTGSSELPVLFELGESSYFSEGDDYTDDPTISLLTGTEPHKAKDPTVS

[4] = test system: CHO-K1; experiment: Counterscreen for antagonists of the orexin 1 receptor (OX1R; HCRTR1): Homogeneous time resolved fluorescence (HTRF)-based cell-based dose response assay to identify antagonists of the parental CHO-K1 cell line. [Related pubchem assays (depositor defined):AID434989, AID435008, AID463079, AID485270, AID492963, AID492964, AID492965, AID493232, AID504699, AID504701]; type: functional; settings: Cricetulus griseus;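 note: potency for inhibition of ATP-stimulated IP1 production as antagonists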
[5] = Counterscreen for antagonists of the orexin 1 receptor (OX1R; HCRTR1): Fluorescence-based cell-based high throughput dose response assay to identify antagonists of the parental CHO cell line. [Related pubchem assays (depositor defined):AID434989, AID435008, AID463079, AID485270, AID492963, AID492964, AID492965, AID493232, AID504699, AID504701]; type: functional
[6] = target: T3, Orexin/Hypocretin receptor type 1 (Homo sapiens, UniProt O43613); experiment: Homogeneous Time Resolved Fluorescence (HTRF)-based cell-based high throughput dose response assay for antagonists of the orexin 1 receptor (OX1R; HCRTR1). [Related pubchem assays (depositor defined):AID434989, AID435008, AID463079, AID485270, AID492963, AID492964, AID492965, AID493232, AID504717, AID504718]; type: functional
T3 sequence (O43613 whole entry): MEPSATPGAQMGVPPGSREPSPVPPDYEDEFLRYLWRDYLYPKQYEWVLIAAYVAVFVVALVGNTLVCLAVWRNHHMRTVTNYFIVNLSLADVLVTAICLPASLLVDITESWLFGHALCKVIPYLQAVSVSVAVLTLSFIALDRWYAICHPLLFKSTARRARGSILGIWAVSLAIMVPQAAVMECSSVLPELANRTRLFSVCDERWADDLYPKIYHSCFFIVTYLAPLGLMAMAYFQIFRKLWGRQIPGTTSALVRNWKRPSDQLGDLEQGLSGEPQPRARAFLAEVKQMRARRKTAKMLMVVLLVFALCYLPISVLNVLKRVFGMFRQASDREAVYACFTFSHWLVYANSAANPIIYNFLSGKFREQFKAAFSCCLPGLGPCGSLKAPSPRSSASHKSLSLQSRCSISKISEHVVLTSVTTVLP

[7] = target: T3, Orexin/Hypocretin receptor type 1; experiment: Fluorescence-based cell-based high throughput dose response assay for antagonists of the orexin 1 receptor (OX1R; HCRTR1). [Related pubchem assays (depositor defined):AID434989, AID435008, AID463079, AID485270, AID492963, AID492964, AID492965, AID493232, AID504717, AID504718]; type: functional
[8] = target: T4, E3 ubiquitin-protein ligase XIAP (Homo sapiens, UniProt P98170); experiment: Counter Screen using XIAP-Bir3 for Chemical Antagonists of Bir1/2 domains of IAP-family anti-apoptotic proteins. [Related pubchem assays (depositor defined):AID1018, AID1449, AID1514, AID1638, AID1749, AID1750, AID488957, AID488963]
T4 sequence (P98170 whole entry): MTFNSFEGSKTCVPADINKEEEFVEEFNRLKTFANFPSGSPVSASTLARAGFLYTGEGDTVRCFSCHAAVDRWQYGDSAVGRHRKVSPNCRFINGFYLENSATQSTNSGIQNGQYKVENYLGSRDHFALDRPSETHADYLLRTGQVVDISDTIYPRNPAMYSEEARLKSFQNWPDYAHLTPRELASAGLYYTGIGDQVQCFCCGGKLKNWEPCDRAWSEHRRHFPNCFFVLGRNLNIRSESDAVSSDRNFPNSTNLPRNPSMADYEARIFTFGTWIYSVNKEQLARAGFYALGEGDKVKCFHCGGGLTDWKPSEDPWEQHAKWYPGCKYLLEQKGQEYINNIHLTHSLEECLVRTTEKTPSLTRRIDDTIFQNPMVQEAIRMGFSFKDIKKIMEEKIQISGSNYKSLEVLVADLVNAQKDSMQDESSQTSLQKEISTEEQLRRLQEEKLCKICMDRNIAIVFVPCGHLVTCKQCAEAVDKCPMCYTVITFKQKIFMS

[9] = target: T4, E3 ubiquitin-protein ligase XIAP; experiment: small molecules displacing peptide from XIAP – biochemical, IAP family, fluorescence polarization (AID 1018); type: functional
[10] = test system: Vero; experiment: viability of Vero cells under compound – cytotoxicity control for flavivirus capping enzyme inhibitors (AID 588742); type: functional; settings: Chlorocebus sabaeus
[11] = target: Voltage-gated inwardly rectifying potassium channel KCNH2 (Homo sapiens, UniProt Q12809); settings: Potency;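 note: confirmatory quantitative high-throughput screen measuring inhibition of hERG channel activity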
Chain of Voltage-gated inwardly rectifying potassium channel KCNH2 (Q12809 whole entry): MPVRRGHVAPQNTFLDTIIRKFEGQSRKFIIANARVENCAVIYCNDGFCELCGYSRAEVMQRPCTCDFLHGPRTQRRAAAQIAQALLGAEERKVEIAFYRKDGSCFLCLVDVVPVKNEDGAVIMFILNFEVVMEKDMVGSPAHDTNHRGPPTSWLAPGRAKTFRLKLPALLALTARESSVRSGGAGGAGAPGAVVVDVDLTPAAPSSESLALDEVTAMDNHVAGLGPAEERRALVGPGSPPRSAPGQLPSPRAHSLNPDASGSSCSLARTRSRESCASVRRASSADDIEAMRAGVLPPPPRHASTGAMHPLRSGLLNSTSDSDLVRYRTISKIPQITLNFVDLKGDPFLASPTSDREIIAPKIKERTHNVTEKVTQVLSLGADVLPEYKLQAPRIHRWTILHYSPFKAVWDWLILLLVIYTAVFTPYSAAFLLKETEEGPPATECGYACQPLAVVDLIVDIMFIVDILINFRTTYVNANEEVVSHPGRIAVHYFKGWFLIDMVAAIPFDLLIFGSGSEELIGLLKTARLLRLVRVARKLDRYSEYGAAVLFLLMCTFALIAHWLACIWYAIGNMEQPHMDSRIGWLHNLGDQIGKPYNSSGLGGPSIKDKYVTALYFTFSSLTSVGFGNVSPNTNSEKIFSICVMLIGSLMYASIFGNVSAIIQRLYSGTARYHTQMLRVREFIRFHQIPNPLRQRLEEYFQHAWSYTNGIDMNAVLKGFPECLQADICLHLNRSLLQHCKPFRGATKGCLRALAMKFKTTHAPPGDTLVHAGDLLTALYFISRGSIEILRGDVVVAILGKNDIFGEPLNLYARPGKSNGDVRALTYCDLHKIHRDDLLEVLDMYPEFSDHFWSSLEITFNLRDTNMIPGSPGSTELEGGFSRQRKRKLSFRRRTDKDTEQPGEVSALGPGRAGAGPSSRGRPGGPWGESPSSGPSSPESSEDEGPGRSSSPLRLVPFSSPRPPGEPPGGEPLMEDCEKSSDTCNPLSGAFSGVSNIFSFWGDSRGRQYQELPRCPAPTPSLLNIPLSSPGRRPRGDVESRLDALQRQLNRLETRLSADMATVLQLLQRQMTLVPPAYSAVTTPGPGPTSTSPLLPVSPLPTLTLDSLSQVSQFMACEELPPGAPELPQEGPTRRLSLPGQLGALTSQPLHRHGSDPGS

[12] = NIH-3T3 fibroblast cytotoxicity, dose response, cytotoxicity control, cell-based, fluorescence, Alamar Blue, secondary assay (AID 2327); type: functional;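 note: NIH-3T3 mouse fibroblasts cultured with fluconazole at 8 µg/mL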
[13] = fluconazole-exposed Candida albicans growth modulators – fluorescence, retest, confirmation (AID 2467); type: functional, cell-based
[14] = Trypanosoma cruzi growth suppression in host cells – NIH3T3 host cells, beta-gal luminescence, confirmation (AID 2044); type: functional, cell-based;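 note: intracellular parasites grown in NIH/3T3 mouse fibroblasts as host cells; luminescent beta-galactosidase reporter signal from transgenic T. cruzi replicating inside host cells; inhibitors lower the luminescence signal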
[15] = NIH3T3 cell viability loss – ATP luminescence, mouse fibroblasts, counter-screen, dose response (AID 2010); type: functional, cell-based;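 note: cells exposed to compound for about 90 hours before reading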
[16] = target: DNA dC->dU-editing enzyme APOBEC-3A (Homo sapiens, UniProt P31941); experiment: Dose Response confirmation of small molecule APOBEC3A DNA Deaminase Inhibitors via a fluorescence-based single-stranded DNA deaminase assay. [Related pubchem assays (depositor defined):AID493011, AID493024]; type: functional
Chain of DNA dC->dU-editing enzyme APOBEC-3A (P31941 whole entry): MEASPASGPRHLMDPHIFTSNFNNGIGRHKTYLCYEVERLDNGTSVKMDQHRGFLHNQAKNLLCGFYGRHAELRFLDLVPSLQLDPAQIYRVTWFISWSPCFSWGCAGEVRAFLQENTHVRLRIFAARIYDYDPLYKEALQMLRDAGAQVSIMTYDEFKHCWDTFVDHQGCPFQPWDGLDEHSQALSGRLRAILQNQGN

[17] = target: DNA dC->dU-editing enzyme APOBEC-3G (Homo sapiens, UniProt Q9HC16); type: functional;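 note: Dose-response counterscreen measuring inhibition of APOBEC3G DNA deaminase activity, run while confirming APOBEC3A inhibitors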
Chain of DNA dC->dU-editing enzyme APOBEC-3G (Q9HC16 whole entry): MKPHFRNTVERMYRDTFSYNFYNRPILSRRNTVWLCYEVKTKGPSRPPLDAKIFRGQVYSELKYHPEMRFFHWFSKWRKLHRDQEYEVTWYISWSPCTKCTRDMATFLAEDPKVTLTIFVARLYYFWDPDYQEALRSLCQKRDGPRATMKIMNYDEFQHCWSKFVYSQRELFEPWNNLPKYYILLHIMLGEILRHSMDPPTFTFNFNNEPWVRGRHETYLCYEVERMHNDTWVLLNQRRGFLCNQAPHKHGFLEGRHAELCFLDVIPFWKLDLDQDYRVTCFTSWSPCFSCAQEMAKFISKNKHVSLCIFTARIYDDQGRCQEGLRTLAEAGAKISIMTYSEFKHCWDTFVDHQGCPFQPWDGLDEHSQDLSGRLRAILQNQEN

[18] = target: Cytochrome P450 2C19 (Homo sapiens, UniProt P33261); experiment: Cytochrome panel assay with activity outcomes. Panel member name: p450-cyp2c19 Compounds with AC50 equal or less than 10 uM are considered active; type: functional; settings: read-out: AC50
Chain of Cytochrome P450 2C19 (P33261 whole entry): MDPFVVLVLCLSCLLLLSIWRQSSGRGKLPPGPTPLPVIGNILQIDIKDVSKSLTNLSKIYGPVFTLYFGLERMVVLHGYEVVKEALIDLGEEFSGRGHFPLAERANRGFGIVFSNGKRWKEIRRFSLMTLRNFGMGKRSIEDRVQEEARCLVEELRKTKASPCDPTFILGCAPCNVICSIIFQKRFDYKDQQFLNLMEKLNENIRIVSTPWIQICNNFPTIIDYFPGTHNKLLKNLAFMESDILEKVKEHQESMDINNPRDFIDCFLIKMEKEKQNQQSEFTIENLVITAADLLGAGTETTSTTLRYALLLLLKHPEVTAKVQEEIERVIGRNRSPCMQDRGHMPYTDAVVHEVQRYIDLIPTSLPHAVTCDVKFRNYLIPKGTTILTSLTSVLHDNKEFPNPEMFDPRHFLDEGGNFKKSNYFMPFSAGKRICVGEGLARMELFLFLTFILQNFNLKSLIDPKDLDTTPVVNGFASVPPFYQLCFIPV

[19] = target: Cytochrome P450 3A4 (Homo sapiens, UniProt P08684);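 note: CYP3A4 tested as one member of a cytochrome P450 panel screen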
Chain of Cytochrome P450 3A4 (P08684 whole entry): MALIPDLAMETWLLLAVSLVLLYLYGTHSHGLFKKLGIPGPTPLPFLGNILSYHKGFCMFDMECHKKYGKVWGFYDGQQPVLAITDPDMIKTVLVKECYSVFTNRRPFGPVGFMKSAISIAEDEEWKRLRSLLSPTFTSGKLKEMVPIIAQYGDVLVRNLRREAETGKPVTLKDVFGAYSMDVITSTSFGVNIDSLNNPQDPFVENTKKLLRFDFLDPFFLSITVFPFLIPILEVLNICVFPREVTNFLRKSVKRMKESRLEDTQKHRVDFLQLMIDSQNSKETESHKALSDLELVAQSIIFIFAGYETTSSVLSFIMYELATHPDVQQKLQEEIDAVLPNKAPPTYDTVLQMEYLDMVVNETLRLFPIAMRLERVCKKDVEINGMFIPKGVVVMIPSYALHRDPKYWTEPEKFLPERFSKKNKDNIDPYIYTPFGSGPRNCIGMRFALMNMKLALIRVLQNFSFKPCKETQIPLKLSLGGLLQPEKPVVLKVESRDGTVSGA

[20] = decrease of insulin promoter-GFP reporter – imaging, high-content screening, mouse beta cells (AID 1628); type: functional; settings: MIN6
[21] = MIN6 cell viability loss – mouse insulinoma, cytotoxicity control, dose response (AID 2122); type: functional;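 note: confirmatory high-throughput counterscreen run to flag cytotoxic compounds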
[22] = target: T5, Apoptotic protease-activating factor 1 (Homo sapiens, UniProt O14727); type: functional
T5 sequence (O14727 whole entry): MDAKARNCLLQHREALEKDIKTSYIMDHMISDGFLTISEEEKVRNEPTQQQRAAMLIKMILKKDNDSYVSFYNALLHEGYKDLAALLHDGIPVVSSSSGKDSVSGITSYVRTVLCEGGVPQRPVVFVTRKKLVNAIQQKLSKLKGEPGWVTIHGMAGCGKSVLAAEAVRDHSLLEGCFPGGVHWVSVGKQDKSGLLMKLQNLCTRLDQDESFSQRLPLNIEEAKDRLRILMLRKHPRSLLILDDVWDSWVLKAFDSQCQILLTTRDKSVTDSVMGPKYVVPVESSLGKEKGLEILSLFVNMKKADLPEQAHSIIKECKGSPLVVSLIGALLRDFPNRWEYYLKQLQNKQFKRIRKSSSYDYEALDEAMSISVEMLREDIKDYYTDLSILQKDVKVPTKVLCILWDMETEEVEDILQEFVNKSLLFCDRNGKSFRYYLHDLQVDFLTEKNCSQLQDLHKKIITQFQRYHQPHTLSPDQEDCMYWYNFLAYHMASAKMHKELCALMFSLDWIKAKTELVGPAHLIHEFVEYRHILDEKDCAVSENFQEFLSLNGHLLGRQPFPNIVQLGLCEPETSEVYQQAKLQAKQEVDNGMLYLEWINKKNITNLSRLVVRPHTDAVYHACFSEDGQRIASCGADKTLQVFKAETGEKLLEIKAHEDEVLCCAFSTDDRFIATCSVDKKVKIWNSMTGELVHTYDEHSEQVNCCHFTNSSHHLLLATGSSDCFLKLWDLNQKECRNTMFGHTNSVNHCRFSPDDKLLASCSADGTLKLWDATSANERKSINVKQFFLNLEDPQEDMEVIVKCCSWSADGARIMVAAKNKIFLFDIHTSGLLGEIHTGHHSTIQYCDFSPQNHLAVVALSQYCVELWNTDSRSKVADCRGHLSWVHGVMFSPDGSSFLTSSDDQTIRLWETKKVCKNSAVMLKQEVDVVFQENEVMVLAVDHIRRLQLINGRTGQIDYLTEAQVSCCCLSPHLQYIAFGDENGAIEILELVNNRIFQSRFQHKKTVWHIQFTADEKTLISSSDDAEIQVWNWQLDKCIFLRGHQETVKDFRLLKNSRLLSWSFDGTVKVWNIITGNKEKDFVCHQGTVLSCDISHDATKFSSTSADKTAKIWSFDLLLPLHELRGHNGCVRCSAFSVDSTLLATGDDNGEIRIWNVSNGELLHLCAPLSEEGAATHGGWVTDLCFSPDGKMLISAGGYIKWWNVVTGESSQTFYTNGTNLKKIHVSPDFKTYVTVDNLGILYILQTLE

[23] = test system: INS1; experiment: INS-1E survival protection against cytokine death – cell-based, luminescence, retest, dose response (AID 449756); type: functional; settings: Rattus norvegicus;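 note: cell death triggered by IL-1 beta plus TNF-alpha plus IFN-gamma mixture; protective hits raise ATP signal compared with cytokine alone wells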
[24] = test system: H9c2; experiment: cells; type: functional, cell-based; settings: Rattus norvegicus, H9c2, Myocardium;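 note: confirmatory concentration-response retest of ultra-high-throughput screening hits for modulation of myocardial damage; cell death induced by hydrogen peroxide oxidative stress; compound pretreatment for 60 min then peroxide exposure for 2 h; potency is for protecting the cells against peroxide damage rather than for killing them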

Chain of Beta-galactosidase (Q8VNN2 whole entry): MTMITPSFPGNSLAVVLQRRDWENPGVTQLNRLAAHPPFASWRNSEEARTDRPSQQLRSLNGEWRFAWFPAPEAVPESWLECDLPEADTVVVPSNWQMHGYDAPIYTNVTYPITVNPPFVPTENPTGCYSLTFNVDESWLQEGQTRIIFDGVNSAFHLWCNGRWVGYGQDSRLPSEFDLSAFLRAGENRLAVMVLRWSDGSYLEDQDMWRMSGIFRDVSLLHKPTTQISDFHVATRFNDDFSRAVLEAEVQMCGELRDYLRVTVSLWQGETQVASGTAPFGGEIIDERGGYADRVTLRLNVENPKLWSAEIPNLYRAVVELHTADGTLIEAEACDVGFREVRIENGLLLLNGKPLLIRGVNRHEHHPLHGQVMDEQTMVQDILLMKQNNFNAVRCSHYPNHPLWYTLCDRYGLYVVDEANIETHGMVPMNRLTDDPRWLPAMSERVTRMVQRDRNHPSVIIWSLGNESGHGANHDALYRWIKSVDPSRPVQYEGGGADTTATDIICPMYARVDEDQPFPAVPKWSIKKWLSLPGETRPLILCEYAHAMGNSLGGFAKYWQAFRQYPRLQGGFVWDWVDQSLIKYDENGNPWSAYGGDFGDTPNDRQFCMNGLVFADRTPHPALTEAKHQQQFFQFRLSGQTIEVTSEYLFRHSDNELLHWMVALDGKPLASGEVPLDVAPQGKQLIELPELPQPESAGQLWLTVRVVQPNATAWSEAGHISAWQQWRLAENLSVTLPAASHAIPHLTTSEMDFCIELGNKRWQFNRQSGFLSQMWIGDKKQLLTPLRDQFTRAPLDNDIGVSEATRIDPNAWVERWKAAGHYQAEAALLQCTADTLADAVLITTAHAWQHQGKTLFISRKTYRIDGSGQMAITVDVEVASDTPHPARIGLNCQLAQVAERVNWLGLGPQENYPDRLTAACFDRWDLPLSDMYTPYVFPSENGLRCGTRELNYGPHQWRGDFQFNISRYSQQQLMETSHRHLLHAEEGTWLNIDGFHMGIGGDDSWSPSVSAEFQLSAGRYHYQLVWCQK

## COC(=O)C1NN=C(C(=O)c2ccc(Cl)cc2)C1c1ccc(OC)cc1 (configuration not stated)
[1]
  EC50: > 40 µM (inactive)
[2]
  IC50: 28.4 µM (not active)
[3]
  EC50: > 260 µM (inactive)

## O=c1sc(Nc2ccccc2)nc2ccsc12
[4]
  IC50: > 66.2 µM (inactive)
[5]
  IC50: > 49.8 µM (inactive)
[6]
  IC50: 2.43 µM (active)
[7]
  IC50: 12.9 µM (inactive)

## COC(=O)c1ccc(/C=C/C(=O)c2ccc(OC)cc2)cc1
[8]
  IC50: > 100 µM (inactive)
[9]
  IC50: > 100 µM (not active)

## COc1ccc(C(=O)NC2CC(C)(C)Cc3occc32)cc1 (configuration not stated)
[10]
  CC50: > 40 µM (active)

## CCCCOC(=O)c1ccccc1C(=O)OCCCC [DIBUTYL PHTHALATE]
[11]
  AC50: 79.4 µM (inconclusive)

## Cc1nn(CCC(=O)NN=C(S)Nc2ccccc2)c(C)c1Br
[1]
  EC50: > 40 µM (inactive)
[2]
  IC50: > 40 µM (not active)

## CC(/C=C/c1cccc(Oc2ccc(F)cc2)c1)N(O)C(N)=O (configuration not stated)
[11]
  AC50: 0.2 µM (inconclusive)

## c1ccc(CCc2nc(-c3ccc(-n4cccc4)cc3)no2)cc1
[8]
  IC50: > 100 µM (inactive)
[9]
  IC50: > 100 µM (not active)

## CN(/C=C/C1=[N+](C)c2ccccc2C1(C)C)c1ccccc1
[12]
  EC50: > 160 µM (inactive)
[13]
  EC50: > 38 µM (not active)
[14]
  EC50: 0.335 µM (active)
[15]
  EC50: > 60 µM (inconclusive)
[16]
  IC50: 1.67 µM (active)
[17]
  IC50: 2.31 µM (active)
[18]
  AC50: 0.00708 µM (inconclusive)
[19]
  AC50: 31.6 µM (inconclusive)

## Cc1cc(NC(=O)c2cnn3c(C(F)(F)F)cc(-c4ccccc4)nc23)no1
[20]
  IC50: 1.99 µM (active)
[21]
  IC50: > 16 µM (inactive)

## CC1(C)Cc2cccc(OCC(=O)N3CCN(c4cccc(C(F)(F)F)c4)CC3)c2O1
[22]
  IC50: > 100 µM (inactive)

## O=C=Nc1ccc(Cc2ccc(N=C=O)cc2)cc1
[11]
  AC50: 79.4 µM (inconclusive)

## COc1ccc2c(c1)C(=O)[C@@H](O)[C@H](c1ccc(OC)c(Br)c1)O2
[1]
  EC50: > 40 µM (inactive)
[2]
  IC50: 34.6 µM (not active)
[23]
  AC50: 4.2 µM (active)
[24]
  IC50: > 79 µM (inactive)

Source: ChEMBL document CHEMBL1201862, “PubChem BioAssay data set” (2004)
